The results in this text go back to patent US20230416294A1, “DECITABINE ANALOGS FOR IMMUNOLOGICAL AND ONCOLOGICAL THERAPY” (The Johns Hopkins University, priority 2020, published 2023).

SMILES strings stand for the structures. Like-named read-outs stand apart in the source and are kept apart here.

The target in one series is cytidine deaminase (CDA) (Homo sapiens, UniProt P32320). Description: stability to cytidine deaminase (CDA). The format is in vitro ADME.
In series [1] the test system is Regulatory T cell (Tregs). Description: Treg functional assay for efficacy. The series is classed as cell-based, Murine. To be noted: dose response. Here is the method:
A functional assay was developed to identify a compound that can augment Regulatory T cell (Tregs) suppressive function. Tregs are the major regulators of the immune systems and are paramount in transplant tolerance and in autoimmune and inflammatory diseases. Current hypomethylating drugs such as decitabine (DAC) can augment Treg function, but carry significant side effects and cytotoxicity. Murine Tregs were isolated from spleens using magnetic beads (Miltenyi). […] Tregs were cultured for 48 hrs in the presence of anti-CD3, anti CD28 and IL-2+/−equimolar concentrations decitabine and analogs. After 48 hrs, Tregs were analyzed for suppressive phenotype using Foxp3 expression (master transcription factor) and relative proliferation (Ki-67 expression).

In a further series the test system is Mouse CD4+ T cells. Description: regulatory T cell phenotype and function in cultured CD4+ T cells. The series is classed as cell-based. The settings on record: Mouse CD4+ T cells cultured for 3 days +/−DAC or MK-923. Here is the method:
Mouse CD4+ T cells were cultured for 3 days +/−DAC or MK-923;

The next series deals with DU145 cancer cells. Description: DAC incorporation into genomic DNA and DNA demethylation in DU145 cells. The series is classed as cell-based. To be noted: DU145 cancer cells treated with a dose response of MK-923. Here is the method:
DU145 cancer cells were treated with a dose response of MK-923, and the degree of 5-aza-2′deoxycytidine (DAC) (Blue line, left axis), and DNA demethylation (orange line, right axis), was measured.

The nature of series [2]: toxicity of nebulized compound versus DAC. The series is classed as in vivo.
Series [3] deals with bacterial-induced lung injury. Description: bacterial-induced lung injury model, nebulized compound. The series is classed as in vivo. To be noted: (1 mg/kg DAC).
Series [4] can be described thus: lung delivery versus plasma after nebulization in LPS lung injury model. The series is classed as in vivo. The settings on record: inhaled, nebulized, read-out: enhanced lung delivery versus plasma.
The test system of series [5] is acute lung injury induced by lipopolysaccharide (LPS). To be noted: in vivo.
In a further series the test system is influenza. Description: influenza model. To be noted: in vivo.
Another series concerns lung allograft rejection. Description: lung allograft rejection. The settings on record: in vivo.
Series [6] deals with eosinophilic inflammation. Description: asthma model. To be noted: in vivo.

cytidine deaminase (CDA), sequence (P32320 whole entry, species assumed): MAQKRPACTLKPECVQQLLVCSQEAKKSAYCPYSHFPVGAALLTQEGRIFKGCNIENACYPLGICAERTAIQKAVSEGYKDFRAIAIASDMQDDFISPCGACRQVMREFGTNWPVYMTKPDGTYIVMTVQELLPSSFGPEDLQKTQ

As to `CN(C)/C=N\c1ncn([C@H]2C[C@H](O)[C@@H](CO)O2)c(=O)n1` [MK-890, N^4-Dimethylaminomethylene derivative], at cytidine deaminase (CDA) (+/−tetrahydrouridine), the “stability to cytidine deaminase (CDA)” value is recorded as “stable”.

As for `O=c1nc(/N=C/N2CCCC2)ncn1[C@H]1C[C@H](O)[C@@H](CO)O1` [MK-911], on cytidine deaminase (CDA), the “stability to cytidine deaminase (CDA)” value was “stable”. In addition, the “increase in Tregs” value in series [1] is given as “dose-dependent increase”.

Take `CN1CCC/C1=N/c1ncn([C@H]2C[C@H](O)[C@@H](CO)O2)c(=O)n1` [MK-923]: the “enhancing regulatory T cell (Tregs) phenotype and function” value in the series on Mouse CD4+ T cells is listed as “equipotent”. In the series with DU145 cancer cells, the “5-aza-2′deoxycytidine (DAC) incorporation into genomic DNA” value is given as “dose responsive increase” and the “DNA Cytosine methylation” value was “decrease”. Besides, in series [2], the “toxicity versus DAC” value was “improved toxicity versus DAC”. In addition, in series [3], the “efficacy in bacterial-induced lung injury” value is listed as “rescues bacterial-induced lung injury” and the hematological toxicity result was “reduced hematological toxicity”. Moreover, the Kp in series [4] came out at 6. In addition, in [5], the “therapeutic index versus DAC” value was “enhanced therapeutic index versus DAC” and the “toxicity in LPS lung injury model” value is recorded as “without overt toxicity”.

For the molecule `Nc1ncn([C@H]2C[C@H](O)[C@@H](CO)O2)c(=O)n1` [decitabine, 5-aza-2′-deoxycytidine], the “increase in Tregs” value in [1] is reported as “dose-dependent increase”. Also, in the series with Mouse CD4+ T cells, the “enhancing regulatory T cell (Tregs) phenotype and function” value is “equipotent”. Further, the “ongoing inflammation in an influenza model” value with influenza was “rescues ongoing inflammation”. Further, in the series on lung allograft rejection, the lung allograft rejection entry is “improves lung allograft rejection”. The “eosinophilic inflammation in an asthma model” value in series [6] was “potently abrogates eosinophilic inflammation”.
